EPA's ToxValDB 9.5 (doi:10.2903/j.efsa.2006.64r)
≈ marks a conversion by molar mass, not a printed value.

Experiments:
Apis mellifera = conditions: acute, mortality
Beta vulgaris = conditions: not reported; seedling emergence
Bibionidae = conditions: chronic/long-term; duration: 28 days; seedling emergence
Daphnia magna = conditions: chronic/long-term; duration: 21 days; reproduction
Mus musculus = conditions: acute; oral; mortality
Oncorhynchus mykiss = conditions: mortality
Oryctolagus sp. = conditions: developmental; development
Typhlodromus pyri = conditions: acute; duration: 7 days; mortality

CC1(C)CCC(Cc2ccc(Cl)cc2)C1(O)Cn1cncn1 (stereo not given) [Metconazole]
LD50 (Apis mellifera; duration: 72 hours, oral, unspecified): > 85 µg/piece | LD50 (Apis mellifera; duration: 96 hours, dermal): > 100 µg/piece | NOEC (Beta vulgaris): 96 g/ha | NOEC (Bibionidae): 2.12 mg/L | LD50 (Bird; acute, oral, unspecified, mortality): 787 mg/kg | NOEC (Bird; reproductive, duration: 22 weeks): 6.19 mg/kg-day | LC50 (Bird; short-term, oral, feed, mortality): 168 mg/kg-day | NOEC (Daphnia magna): 0.16 mg/L | LD50 (Mus musculus): 410 mg/kg | LC50 (Oncorhynchus mykiss; acute, duration: 72 hours): 2.1 mg/L (≈ 6.57 µM) | NOEC (Oncorhynchus mykiss; chronic/long-term, duration: 95 days): 0.00291 mg/L | NOAEL (Oryctolagus sp.): 4 mg/kg-day | LC50 (Tagia sp.; acute, duration: 14 days, mortality): > 1000 mg/kg | NOEC (Tagia sp.; chronic/long-term, reproduction): 1.8 mg/kg | LEL (Typhlodromus pyri): 180 g/ha
